# Patent US5750754A, “Heterocyclic compounds” (Zeneca Limited, priority 1993, dated 1998)
# Counter-ions that a name gives are not always drawn.
# Biological target: T1, human, citrated, platelet-rich plasma (Homo sapiens, UniProt P05106+P08514)
# T1 construct: aggregating human, citrated, platelet-rich plasma; endogenous in cells; host or cells: human platelets in citrated platelet-rich plasma
# Assay: Test (a): inhibition of ADP stimulated platelet aggregation (Born)
# Format: cell-based
# Conditions: ADP induced aggregation of human platelet-rich plasma
# From the text: (i) aggregating human, citrated, platelet-rich plasma by addition of adenosine diphosphate so as to generate a dose-response curve;
# (ii) generating a dose-response curve for ADP stimulated platelet aggregation in the presence of increasing amounts of a test compound (generally in the range 10-^5 M to 10-^10 M); and
# (iii) calculating a pA2 value indicating potency of platelet aggregation inhibition for the test compound, averaged over several concentrations, from the calculated 50% response value for ADP aggregation in the presence and absence of the test compound.
# T1 sequence (P08514 32-887 limits assumed): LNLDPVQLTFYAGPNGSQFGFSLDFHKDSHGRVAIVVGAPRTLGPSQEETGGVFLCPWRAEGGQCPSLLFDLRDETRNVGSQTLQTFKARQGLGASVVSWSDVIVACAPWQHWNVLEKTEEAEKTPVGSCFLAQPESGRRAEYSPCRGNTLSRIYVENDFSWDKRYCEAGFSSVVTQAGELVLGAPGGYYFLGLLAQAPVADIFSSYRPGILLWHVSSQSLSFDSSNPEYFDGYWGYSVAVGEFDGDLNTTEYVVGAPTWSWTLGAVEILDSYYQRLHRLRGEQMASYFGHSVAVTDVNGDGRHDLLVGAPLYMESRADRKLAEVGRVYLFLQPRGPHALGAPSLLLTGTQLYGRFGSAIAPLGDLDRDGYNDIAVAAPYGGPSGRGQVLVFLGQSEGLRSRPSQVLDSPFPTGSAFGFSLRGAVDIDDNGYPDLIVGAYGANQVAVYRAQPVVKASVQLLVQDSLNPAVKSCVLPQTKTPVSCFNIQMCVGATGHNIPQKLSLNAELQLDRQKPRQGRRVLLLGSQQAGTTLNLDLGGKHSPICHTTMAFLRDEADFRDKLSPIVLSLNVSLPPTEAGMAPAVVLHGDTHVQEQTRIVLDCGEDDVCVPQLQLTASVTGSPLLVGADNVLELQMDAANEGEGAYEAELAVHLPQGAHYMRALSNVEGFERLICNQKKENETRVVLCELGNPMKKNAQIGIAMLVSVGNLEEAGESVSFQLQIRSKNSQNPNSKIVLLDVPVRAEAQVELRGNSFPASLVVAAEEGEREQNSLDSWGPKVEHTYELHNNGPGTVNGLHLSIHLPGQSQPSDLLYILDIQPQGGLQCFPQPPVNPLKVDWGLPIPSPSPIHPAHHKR
# T1 sequence (P08514 891-1039 limits assumed): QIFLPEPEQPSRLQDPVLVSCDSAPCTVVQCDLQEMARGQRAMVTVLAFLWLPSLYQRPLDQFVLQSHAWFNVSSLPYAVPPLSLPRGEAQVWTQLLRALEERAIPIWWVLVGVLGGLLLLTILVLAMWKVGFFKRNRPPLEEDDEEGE
# T1 sequence (P05106 27-788): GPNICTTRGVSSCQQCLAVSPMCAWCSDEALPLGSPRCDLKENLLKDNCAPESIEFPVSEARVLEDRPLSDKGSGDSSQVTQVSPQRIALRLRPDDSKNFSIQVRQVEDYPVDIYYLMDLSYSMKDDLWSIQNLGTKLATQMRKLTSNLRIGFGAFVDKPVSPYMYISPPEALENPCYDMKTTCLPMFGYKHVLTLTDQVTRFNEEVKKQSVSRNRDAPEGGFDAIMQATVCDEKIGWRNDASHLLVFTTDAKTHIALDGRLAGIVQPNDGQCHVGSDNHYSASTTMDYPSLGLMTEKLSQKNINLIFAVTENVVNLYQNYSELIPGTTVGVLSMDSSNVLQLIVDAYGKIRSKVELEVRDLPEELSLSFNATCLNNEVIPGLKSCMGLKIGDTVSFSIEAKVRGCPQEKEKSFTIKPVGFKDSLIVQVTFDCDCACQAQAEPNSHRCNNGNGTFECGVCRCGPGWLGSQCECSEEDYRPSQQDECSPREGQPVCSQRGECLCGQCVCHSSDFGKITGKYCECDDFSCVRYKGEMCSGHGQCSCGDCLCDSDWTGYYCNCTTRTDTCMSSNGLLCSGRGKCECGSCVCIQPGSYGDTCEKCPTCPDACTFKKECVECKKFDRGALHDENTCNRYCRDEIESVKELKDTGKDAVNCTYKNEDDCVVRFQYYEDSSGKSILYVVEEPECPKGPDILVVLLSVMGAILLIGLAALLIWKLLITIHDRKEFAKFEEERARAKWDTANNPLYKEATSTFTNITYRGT
row,Test (a): pA2 value indicating potency of platelet aggregation inhibition,SMILES
1,6.0,"O=C(O)CCCCCOc1ccc(Nc2ccncc2)cc1 [Example 188, 6-[4-(4-Pridylamino)phenoxy]hexanoic acid hydrochloride]"

# Same assay, conditions: ADP induced aggregation of human platelet-rich plasma; read-out: Test (a): pA2 value indicating potency of platelet aggregation inhibition (converted)
row,Kb [nM],SMILES
1,1000,"CCCCS(=O)(=O)NC(CCOc1ccc(N2CCN(c3ccncc3)CC2)cc1)C(=O)OC (racemic) [Example 218, RS Methyl 2-n-butanesulphonylamino-4-[4-[4-(4-pyridyl)piperazin-1-yl]phenoxy]butyrate]"
2,31.6,"CCCCS(=O)(=O)NC(CCOc1ccc(N2CCN(c3ccncc3)CC2)cc1)C(=O)O (racemic) [Example 219, RS 2-n-Butanesulphonylamino-4-[4-[4-(4-pyridyl)piperazin-1-yl]phenoxy]butyricacid]"
3,3160,"O=C(O)CC(COc1ccc(N2CCN(c3ccncc3)CC2)cc1)Cc1ccccc1 (racemic) [Example 220, RS 3-Benzyl-4-[4-[4-(4-pyridyl)piperazin-1-yl]phenoxy]-butyric acid]"
4,158,"O=C(O)CC(COc1ccc(N2CCN(c3ccncc3)CC2)cc1)c1ccccc1 (racemic) [Example 221, RS 3-Phenyl-4-[4-[4-(4-pyridyl)piperazin-1-yl]phenoxy]-butyric acid]"
5,3160,"O=C(O)CCCc1ccc(CN2CCN(c3ccncc3)CC2)cc1 [Example 180, 4-[4-[4-(4-Pyridyl)piperazin-1yl]methylphenyl]butyric acid, dihydrochloride]"
6,15800,"CCOC(=O)CCCCCOc1ccc(Nc2ccncc2)cc1 [Example 187, Ethyl 6-[4-(4-pyridylamino)phenoxy]hexanoate]"
7,501,"O=C(O)CCC(=O)Nc1ccc(N2CCN(c3ccncc3)CC2)cc1 [Example 199, 4-Oxo-4-[4-[4-(4-pyridyl)piperazine-1-yl]phenyl]aminobutyric acid]"
8,251,"C=CCc1cc(N2CCN(c3ccncc3)CC2)ccc1OCCCC(=O)OCC [Example 205, Ethyl 4-[2-allyl-4-[4-(4-pyridyl)piperazin-1-yl]phenoxy]butyrate]"
9,316,"CCCc1cc(N2CCN(c3ccncc3)CC2)ccc1OCCCC(=O)O [Example 208, 4-[2-n-Propyl4-[4-(4-pyridyl)piperazin-1-yl]phenoxy]butyric acid]"
10,200,"CCOC(=O)CCCOc1ccc(N2CCN(c3ccncc3)CC2)cc1C [Example 209, Ethyl 4-[2-methyl-4-[4-(4-pyridyl)piperazin-1-yl]phenoxy]butyrate]"
11,316,"Cc1cc(N2CCN(c3ccncc3)CC2)ccc1OCCCC(=O)O [Example 210, 4-[2-Methyl-4-[4-(4-pyridyl)piperazin-1-yl]phenoxy]-butyric acid]"
12,126,"CCOC(=O)COc1ccc(C(=O)CN2CCN(c3ccncc3)CC2=O)cc1 [Example 215, Ethyl 4-[2-[4-(4-pyridyl)piperazin-2-one-1-yl]acetyl]phenoxyacetate]"
13,2000,"CCOC(=O)CNC(=O)COc1ccc(C(=O)CN2CCN(c3ccncc3)CC2=O)cc1 [Example 216, Ethyl N 4-[2-(4-(4-pyridyl)piperazin-2-one-1-yl)acetyl]phenoxyacetylglycinate]"
14,316,"CCOC(=O)CCCOc1ccc(N2CCN(c3ccncc3)CC2)cc1[N+](=O)[O-] [Example 217, Ethyl 4-[2-nitro-4-[4-(4-pyridyl)piperazin-1-yl]phenoxy]butyrate]"
15,158,CN(C)c1ccncc1CCCOc1ccc(C[C@H](NC(=O)OCc2ccccc2)C(=O)O)cc1 [Example 225]
16,31600,"COC(=O)c1ccc(Oc2ccc(N3CCN(c4ccncc4)CC3)cc2)nc1 [Example 232, Methyl 6-[4-[4-(4-pyridyl)piperazin-1-yl]phenoxy]pyridine-3-carbxylate]"
17,794,"O=C(O)CCN(Cc1ccccc1)C(=O)c1ccc(N2CCN(c3ccncc3)CC2)cc1 [Example 236, 3-[4-[4-(4-Pyridyl)piperazin-1-yl]]-N-benzylbenzamidopropionic acid]"
18,1260,"O=C(O)CN1CCC(Oc2ccc(N3CCN(c4ccncc4)CC3)cc2)CC1 [Example 238, 4-[4-[4-(Pyridyl)piperazin-1-yl]phenoxy]piperidineacetic acid]"
19,2510,O=C(O)CN1CCCC(Oc2ccc(N3CCN(c4ccncc4)CC3)cc2)C1 (stereo not shown) [Example 239]
20,25.1,"CCCc1cc(C(=O)CN2CCN(c3ccncc3)CC2=O)ccc1OCC(=O)O [Example 240, [2-Propyl-4-[2-[4-(4-pyridyl)piperazin-2-one-1-yl]acetyl]]phenoxyacetic acid]"
21,6.31,"Cc1cc(C(=O)CN2CCN(c3ccncc3)CC2=O)ccc1OCC(=O)O [Example 241, [2-Methyl-4-[2-[4-(4-pyridyl)piperazin-2-one-1-yl]acetyl]]phenoxyacetic acid]"
22,316,"CCOC(=O)CCCOc1ccc(N2CCN(c3ccncc3)CC2=O)cc1 [Example 242, Ethyl 4-[4-[4-(4-pyridyl)piperazin-2-one-1yl]phenoxy]butyrate]"
23,10,"O=C(O)CCCOc1ccc(N2CCN(c3ccncc3)CC2=O)cc1 [Example 243, 4-[4-[4-(4-Pyridyl)piperazin-2-one-1-yl]phenoxy]butyric acid]"

row,SMILES,Kb [nM]
1,"CC(C)(C)OC(=O)NC(CCOc1ccc(N2CCN(c3ccncc3)CC2)cc1)C(=O)O (racemic) [Example 212, RS 2-t-Butoxycarbonylamino-4-[4-[4-(4-pyridyl)piperazin-1-yl]phenoxy]butyric acid]",79.4
